According to ChEMBL document CHEMBL5465560, “Selectivity Literature for EUbOPEN Chemogenomic Library” (2024):

Key:
[1] = molecular target: Casein kinase I isoform delta (Homo sapiens, UniProt P48730); assay: Selectivity interaction (KinomeScan (DiscoverX)) EUB0000229b CSNK1D; conditions: at 10 µM
[2] = molecular target: Phosphatidylinositol 4-phosphate 5-kinase type-1 alpha (Homo sapiens) (UniProt Q99755); assay: Selectivity interaction (KinomeScan (DiscoverX)) EUB0000229b PIP5K1A; conditions: at 10 µM
[3] = molecular target: T1, Uncharacterized serine/threonine-protein kinase SBK3 (Homo sapiens) (UniProt P0C264); assay: Selectivity interaction (KinomeScan (DiscoverX)) EUB0000229b SBK3; conditions: at 10 µM
T1 sequence (whole entry): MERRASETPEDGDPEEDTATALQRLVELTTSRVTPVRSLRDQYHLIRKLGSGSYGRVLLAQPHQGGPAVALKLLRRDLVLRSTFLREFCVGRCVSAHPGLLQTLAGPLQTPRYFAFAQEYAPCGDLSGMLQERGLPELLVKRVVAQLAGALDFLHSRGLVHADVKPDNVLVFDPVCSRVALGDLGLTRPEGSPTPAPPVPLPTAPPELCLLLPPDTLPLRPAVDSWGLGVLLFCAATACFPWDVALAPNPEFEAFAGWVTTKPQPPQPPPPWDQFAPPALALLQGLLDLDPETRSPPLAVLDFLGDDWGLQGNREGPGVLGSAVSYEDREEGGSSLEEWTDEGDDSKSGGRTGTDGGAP

[4] = molecular target: NT-3 growth factor receptor (Homo sapiens, UniProt Q16288); assay: Selectivity interaction (KinomeScan (DiscoverX)) EUB0000655a NTRK3; conditions: at 10 µM
[5] = molecular target: Calcium/calmodulin-dependent protein kinase type 1D (Homo sapiens) (UniProt Q8IU85); assay: Selectivity interaction (ProQinase) EUB0000171b CAMK1D
[6] = molecular target: T2, 3-phosphoinositide-dependent protein kinase 1 (Homo sapiens) (UniProt O15530); assay: Selectivity interaction (KinomeScan (DiscoverX)) EUB0001079a PDPK1; conditions: at 1 µM
T2 sequence (whole entry): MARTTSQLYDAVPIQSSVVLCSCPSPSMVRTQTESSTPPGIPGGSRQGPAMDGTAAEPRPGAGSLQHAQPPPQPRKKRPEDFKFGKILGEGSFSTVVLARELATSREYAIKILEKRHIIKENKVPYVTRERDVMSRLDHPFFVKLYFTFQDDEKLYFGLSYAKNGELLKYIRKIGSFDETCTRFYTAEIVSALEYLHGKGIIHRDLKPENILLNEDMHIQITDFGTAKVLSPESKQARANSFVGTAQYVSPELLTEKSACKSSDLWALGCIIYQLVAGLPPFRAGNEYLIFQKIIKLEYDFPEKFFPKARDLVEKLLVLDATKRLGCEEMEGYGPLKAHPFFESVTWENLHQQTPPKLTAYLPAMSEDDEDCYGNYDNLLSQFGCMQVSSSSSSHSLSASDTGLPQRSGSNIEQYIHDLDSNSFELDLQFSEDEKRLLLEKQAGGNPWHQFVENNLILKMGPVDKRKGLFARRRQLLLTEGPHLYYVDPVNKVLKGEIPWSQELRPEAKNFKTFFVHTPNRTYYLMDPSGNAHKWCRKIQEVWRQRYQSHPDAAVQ

[7] = molecular target: T3, Calcium/calmodulin-dependent protein kinase type IV (Homo sapiens) (UniProt Q16566); assay: Selectivity interaction (Kinase panel (Z-LYTE Assay)) EUB0001632a CAMK4; conditions: at 10 µM
T3 sequence (whole entry): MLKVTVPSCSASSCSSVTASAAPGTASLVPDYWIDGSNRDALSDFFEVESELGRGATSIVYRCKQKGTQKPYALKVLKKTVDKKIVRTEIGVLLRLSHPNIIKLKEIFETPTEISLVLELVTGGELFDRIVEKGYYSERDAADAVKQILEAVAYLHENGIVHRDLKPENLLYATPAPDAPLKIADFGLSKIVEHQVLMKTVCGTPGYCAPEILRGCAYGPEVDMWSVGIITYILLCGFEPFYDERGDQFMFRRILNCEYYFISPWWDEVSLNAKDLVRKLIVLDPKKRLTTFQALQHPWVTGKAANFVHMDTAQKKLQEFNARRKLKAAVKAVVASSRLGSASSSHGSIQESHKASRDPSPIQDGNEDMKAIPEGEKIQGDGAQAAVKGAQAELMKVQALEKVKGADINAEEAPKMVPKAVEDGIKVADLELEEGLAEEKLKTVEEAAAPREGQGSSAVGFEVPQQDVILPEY

[8] = molecular target: Tyrosine-protein kinase Fgr (Homo sapiens) (UniProt P09769); assay: Selectivity interaction (ActivX KiNativ screen (kinase selectivity in THP-1 cell lysates)) EUB0000639a FGR; assay type: subcellular; conditions: lysate
[9] = molecular target: D(2) dopamine receptor (Homo sapiens, UniProt P14416); assay: Selectivity interaction (Panel of kinases, GPCRs, ion channels and transporters (enzymatic assay)) EUB0000223bCl DRD2
[10] = molecular target: T4, 5-hydroxytryptamine receptor 2C (Homo sapiens) (UniProt P28335); assay: Selectivity interaction (Panel of kinases, GPCRs, ion channels and transporters (enzymatic assay)) EUB0000223bCl HTR2C
T4 sequence (whole entry): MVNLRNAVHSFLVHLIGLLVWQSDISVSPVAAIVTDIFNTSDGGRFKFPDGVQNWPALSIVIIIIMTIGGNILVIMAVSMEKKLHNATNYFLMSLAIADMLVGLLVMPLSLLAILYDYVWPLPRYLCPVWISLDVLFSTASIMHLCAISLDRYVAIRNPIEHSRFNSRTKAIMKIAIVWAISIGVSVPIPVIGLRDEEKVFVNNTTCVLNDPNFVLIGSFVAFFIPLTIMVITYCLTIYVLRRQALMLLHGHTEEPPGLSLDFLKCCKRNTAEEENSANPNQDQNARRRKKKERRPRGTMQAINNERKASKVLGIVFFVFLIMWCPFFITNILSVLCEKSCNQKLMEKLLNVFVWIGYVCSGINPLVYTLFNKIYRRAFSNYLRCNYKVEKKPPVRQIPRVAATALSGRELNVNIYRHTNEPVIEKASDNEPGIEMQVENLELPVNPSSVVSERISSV

[11] = molecular target: Serine/threonine-protein kinase 16 (Homo sapiens, UniProt O75716); assay: Selectivity interaction (KinomeScan (DiscoverX)) EUB0000695a STK16; conditions: at 100 nM
[12] = molecular target: D(3) dopamine receptor (Homo sapiens, UniProt P35462); assay: Selectivity interaction (Eurofins CEREP Diversity Profile (receptors and ion channels)) EUB0000279b DRD3; conditions: at 10 µM
D(3) dopamine receptor, sequence (P35462 whole entry): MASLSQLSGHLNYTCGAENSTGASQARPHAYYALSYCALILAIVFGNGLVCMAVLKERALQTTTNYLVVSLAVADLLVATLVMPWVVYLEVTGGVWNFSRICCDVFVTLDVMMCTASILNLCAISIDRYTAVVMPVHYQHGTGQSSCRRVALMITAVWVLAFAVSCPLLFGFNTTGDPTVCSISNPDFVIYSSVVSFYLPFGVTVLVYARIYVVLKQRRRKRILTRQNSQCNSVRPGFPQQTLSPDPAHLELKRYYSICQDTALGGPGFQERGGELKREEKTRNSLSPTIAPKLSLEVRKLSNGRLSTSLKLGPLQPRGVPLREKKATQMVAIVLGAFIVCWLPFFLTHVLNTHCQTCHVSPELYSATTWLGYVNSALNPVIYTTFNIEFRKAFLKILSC

Tyrosine-protein kinase Fgr (Homo sapiens), sequence (P09769 2-529 limits assumed): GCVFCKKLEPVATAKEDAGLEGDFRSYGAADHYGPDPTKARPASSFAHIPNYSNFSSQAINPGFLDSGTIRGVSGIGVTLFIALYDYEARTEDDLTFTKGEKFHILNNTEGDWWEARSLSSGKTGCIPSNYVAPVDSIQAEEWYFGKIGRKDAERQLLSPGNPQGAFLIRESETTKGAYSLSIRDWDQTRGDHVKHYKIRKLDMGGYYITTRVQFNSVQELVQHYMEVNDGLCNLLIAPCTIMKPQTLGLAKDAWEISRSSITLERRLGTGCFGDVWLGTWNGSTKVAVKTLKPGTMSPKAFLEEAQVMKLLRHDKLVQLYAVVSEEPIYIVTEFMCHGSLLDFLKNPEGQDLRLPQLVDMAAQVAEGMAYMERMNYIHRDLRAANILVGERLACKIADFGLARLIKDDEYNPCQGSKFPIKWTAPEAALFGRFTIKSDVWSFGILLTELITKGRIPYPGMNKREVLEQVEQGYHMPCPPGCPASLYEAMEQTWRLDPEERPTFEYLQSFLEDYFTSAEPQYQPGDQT
Calcium/calmodulin-dependent protein kinase type 1D (Homo sapiens), sequence (Q8IU85 whole entry, looked up): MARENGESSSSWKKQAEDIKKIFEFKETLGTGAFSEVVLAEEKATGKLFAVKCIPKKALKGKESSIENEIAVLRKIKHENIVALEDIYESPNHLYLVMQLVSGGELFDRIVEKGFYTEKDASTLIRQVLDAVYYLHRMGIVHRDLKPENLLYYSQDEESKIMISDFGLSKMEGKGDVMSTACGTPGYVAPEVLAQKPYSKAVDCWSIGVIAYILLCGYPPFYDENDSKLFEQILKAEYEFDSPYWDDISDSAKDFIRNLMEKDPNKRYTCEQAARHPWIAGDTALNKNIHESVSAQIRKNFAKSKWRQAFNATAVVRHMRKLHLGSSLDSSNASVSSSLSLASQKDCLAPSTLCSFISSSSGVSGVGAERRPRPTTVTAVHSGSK
NT-3 growth factor receptor, sequence (Q16288 32-839 limits assumed): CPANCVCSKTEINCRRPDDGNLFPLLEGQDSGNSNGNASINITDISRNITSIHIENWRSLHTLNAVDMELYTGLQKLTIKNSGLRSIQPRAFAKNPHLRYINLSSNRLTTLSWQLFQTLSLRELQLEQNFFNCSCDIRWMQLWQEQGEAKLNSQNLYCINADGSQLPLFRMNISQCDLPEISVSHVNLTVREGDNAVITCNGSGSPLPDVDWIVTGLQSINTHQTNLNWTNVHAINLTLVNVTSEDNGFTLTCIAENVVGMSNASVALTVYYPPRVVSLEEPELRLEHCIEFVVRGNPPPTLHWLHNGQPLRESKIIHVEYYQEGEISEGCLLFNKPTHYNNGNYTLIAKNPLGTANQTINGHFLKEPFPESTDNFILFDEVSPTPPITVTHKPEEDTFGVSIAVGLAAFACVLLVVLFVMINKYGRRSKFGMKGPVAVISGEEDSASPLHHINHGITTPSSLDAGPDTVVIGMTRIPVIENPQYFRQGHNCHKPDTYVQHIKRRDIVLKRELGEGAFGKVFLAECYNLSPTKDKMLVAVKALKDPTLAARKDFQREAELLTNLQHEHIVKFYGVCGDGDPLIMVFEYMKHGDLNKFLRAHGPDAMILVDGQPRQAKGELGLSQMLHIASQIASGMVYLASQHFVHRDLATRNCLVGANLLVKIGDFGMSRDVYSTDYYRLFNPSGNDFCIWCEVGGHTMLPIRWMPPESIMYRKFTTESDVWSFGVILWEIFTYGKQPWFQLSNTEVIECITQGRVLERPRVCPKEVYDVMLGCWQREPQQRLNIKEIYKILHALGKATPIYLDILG
Phosphatidylinositol 4-phosphate 5-kinase type-1 alpha (Homo sapiens), sequence (Q99755 whole entry): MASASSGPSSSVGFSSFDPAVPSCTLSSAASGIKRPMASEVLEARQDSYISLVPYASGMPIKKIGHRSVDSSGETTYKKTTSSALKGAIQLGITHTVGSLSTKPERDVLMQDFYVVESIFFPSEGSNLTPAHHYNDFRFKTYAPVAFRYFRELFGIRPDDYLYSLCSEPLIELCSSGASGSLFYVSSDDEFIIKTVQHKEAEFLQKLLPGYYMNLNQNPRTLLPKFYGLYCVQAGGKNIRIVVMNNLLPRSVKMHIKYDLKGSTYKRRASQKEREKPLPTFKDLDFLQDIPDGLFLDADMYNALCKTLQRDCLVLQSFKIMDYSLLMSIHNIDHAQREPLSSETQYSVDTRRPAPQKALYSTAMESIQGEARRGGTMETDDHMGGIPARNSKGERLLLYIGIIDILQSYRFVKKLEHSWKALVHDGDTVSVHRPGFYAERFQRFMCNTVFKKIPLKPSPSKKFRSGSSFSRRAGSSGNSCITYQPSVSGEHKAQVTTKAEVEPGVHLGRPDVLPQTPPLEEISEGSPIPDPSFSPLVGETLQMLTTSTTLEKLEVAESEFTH
Casein kinase I isoform delta, sequence (P48730 whole entry, looked up, canonical isoform): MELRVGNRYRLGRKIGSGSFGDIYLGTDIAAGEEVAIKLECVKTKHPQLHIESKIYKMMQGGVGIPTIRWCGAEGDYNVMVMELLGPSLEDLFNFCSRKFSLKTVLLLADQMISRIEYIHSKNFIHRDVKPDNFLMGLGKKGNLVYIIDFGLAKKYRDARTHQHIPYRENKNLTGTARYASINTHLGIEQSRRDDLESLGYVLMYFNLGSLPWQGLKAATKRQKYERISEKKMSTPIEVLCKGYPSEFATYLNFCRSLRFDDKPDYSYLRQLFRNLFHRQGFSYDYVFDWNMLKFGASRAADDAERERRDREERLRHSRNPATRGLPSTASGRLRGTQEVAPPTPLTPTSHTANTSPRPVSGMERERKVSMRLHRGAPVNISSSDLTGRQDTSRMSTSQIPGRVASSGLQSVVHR
D(2) dopamine receptor, sequence (P14416 whole entry): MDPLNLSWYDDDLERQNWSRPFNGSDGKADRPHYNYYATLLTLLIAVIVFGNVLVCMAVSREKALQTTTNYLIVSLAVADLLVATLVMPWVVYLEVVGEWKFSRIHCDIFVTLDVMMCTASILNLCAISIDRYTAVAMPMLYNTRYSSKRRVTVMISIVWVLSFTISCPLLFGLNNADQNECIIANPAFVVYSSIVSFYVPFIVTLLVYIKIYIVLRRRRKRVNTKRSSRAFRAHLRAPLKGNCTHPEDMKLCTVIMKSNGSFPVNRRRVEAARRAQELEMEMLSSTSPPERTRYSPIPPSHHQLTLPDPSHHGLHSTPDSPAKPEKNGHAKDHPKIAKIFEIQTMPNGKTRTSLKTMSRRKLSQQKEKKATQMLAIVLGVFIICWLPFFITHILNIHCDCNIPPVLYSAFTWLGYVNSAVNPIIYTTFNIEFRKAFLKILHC
Serine/threonine-protein kinase 16, sequence (O75716 whole entry): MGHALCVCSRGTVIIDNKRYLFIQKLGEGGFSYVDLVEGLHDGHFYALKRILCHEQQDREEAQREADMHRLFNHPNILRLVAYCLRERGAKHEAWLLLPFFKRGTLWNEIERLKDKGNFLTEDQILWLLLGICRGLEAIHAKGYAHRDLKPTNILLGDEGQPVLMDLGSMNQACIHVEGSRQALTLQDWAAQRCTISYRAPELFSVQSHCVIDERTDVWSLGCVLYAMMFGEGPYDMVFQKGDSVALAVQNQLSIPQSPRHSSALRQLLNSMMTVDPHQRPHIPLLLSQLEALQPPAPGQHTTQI

COc1cc(N(C)c2ccnc3ccc(C(F)(F)F)cc23)cc(OC)c1OC
% binding [1]: 69% | % binding [2]: 76% | % binding [3]: 100%

CN(C)CCOc1ccc(-c2nc(-c3ccncc3)c(-c3ccc4c(c3)CC/C4=N\O)[nH]2)cc1
% of control [4]: 45%

C=CC(=O)Nc1cccc(C(=O)Nc2ccc(Nc3cc(-c4[nH]c(SC)nc4C)ccn3)cc2)c1
% of control ([5]; at 1 µM): 90% | % of control ([5]; at 5 µM): 75%

Nc1cnc(N2CCc3cc(S(=O)(=O)Nc4c(F)cc(Cl)cc4F)cc(N4CCCC4=O)c32)nc1 [TP-020n]
% of control [6]: 98%

Cn1cc(-n2cnc3c(NCc4nc5cc(Cl)c(Cl)cc5[nH]4)nc(N4CCOCC4)nc32)cn1
% of control [7]: -4.99%

CC[C@@H]1[C@H](F)C(=O)N[C@@H]1COc1nccc2cc(C(N)=O)c(OC)cc12 [ZIMLOVISERTIB]
% of inhibition ([8]; at 0.01 µM): -11.8% | % of inhibition ([8]; at 0.04 µM): -4.6% | % of inhibition ([8]; at 0.2 µM): -12.7% | % of inhibition ([8]; at 1 µM): -24.1% | % of inhibition ([8]; at 5 µM): -17.9%

COc1cc(C(=O)N2CC[C@@H](O)[C@@H](N)C2)cc2nc(-c3cc4ccccc4n3CC3CC3)n(C)c12
pXC50 [9]: < 4 M | pXC50 [10]: < 4.4 M

Cc1cc(F)c(C(=O)Nc2cccc(-c3nncn3C(C)C)n2)cc1-n1cnc(C2CC2)c1
% of control [11]: 83%

CC(=O)c1cc(-c2ccccc2OCC2CC2)c2ncccn12
% of control [12]: 81%
